Results from the supplement of paper PMC13380429.

Key:
[1] = test system: A549-ACE2 infected with SARS-CoV-2; assay: cell count relative to DMSO; higher = less toxic; details: 24 h
Caco-2 [2] = assay: cell viability relative to DMSO; higher = less toxic; details: 72 h
Calu-3 [3] = assay: as above; details: 72 h
HepG2 [4] = assay: as above; details: 72 h
Vero E6 [5] = assay: as above; details: 72 h
[6] = test system: A549-ACE2 infected with SARS-CoV-2; assay: SARS-CoV-2 infection rate relative to DMSO; higher = more infection; details: 24 h
A549-ACE2 [7] = assay: drug-induced phospholipidosis relative to tamoxifen; higher = more phospholipidosis
[8] = test system: A549-ACE2 infected with SARS-CoV-2; assay: morphology score (similarity to uninfected cells); higher = more like uninfected cells; details: 24 h
Caco-2 [9] = assay: relative viability EC50 (midpoint between 100% and the lowest measured viability); higher = less toxic; details: 72 h
Calu-3 [10] = assay: as above; details: 72 h
HepG2 [11] = assay: as above; details: 72 h
Vero E6 [12] = assay: as above; details: 72 h
Caco-2 [13] = assay: drug sensitivity score (DSS) for viability; higher = more toxic; extreme values may be limits of the assay; details: 72 h
Calu-3 [14] = assay: as above; details: 72 h
HepG2 [15] = assay: as above; details: 72 h
Vero E6 [16] = assay: as above; details: 72 h
U2OS [17] = assay: cell viability relative to DMSO; higher = less toxic; details: 72 h
U2OS [18] = assay: relative viability EC50 (midpoint between 100% and the lowest measured viability); higher = less toxic; details: 72 h
U2OS [19] = assay: drug sensitivity score (DSS) for viability; higher = more toxic; extreme values may be limits of the assay; details: 72 h
A549-ACE2 [20] = assay: phospholipidosis EC50; higher = less potent phospholipidosis inducer

CC(=O)N(O)[C@@H]1c2cc(C#N)ccc2OC(C)(C)[C@H]1O
Details | SARS-CoV-2 infection rate, [6] [%] | cell count, [1] [%] | cell viability, Caco-2 [2] [%] | cell viability, Calu-3 [3] [%] | cell viability, HepG2 [4] [%] | cell viability, Vero E6 [5] [%] | morphology score, [8]
1 nM | – | – | 102 | 103 | 101 | 94.6 | –
10 nM | – | – | 86.8 | 90.8 | 108 | 102 | –
100 nM | – | – | 93.1 | 89.9 | 95.8 | 96.5 | –
0.3 µM | 93 | 105 | – | – | – | – | 0.26
1000 nM | – | – | 104 | 102 | 107 | 102 | –
3 µM | 77 | 107 | – | – | – | – | 0.56
10 µM | 40 | 119 | – | – | – | – | 0.81
10000 nM | – | – | 99.7 | 95.2 | 105 | 95.6 | –
30 µM | 36 | 116 | – | – | – | – | 0.82

drug-induced phospholipidosis [%], A549-ACE2 [7]
Details | 0.3 µM | 0.833333 µM | 3.33333 µM | 6.66667 µM | 10 µM | 30 µM
24 h | 5.83 | -1.4 | -3.17 | 0.06 | -1.41 | 3.58
48 h | 5.86 | -0.55 | -0.21 | -2.36 | -0.04 | 3.92
72 h | 1.36 | -4.06 | -1.89 | -2.87 | 0.112 | 6.24

Details | drug sensitivity score | relative viability EC50 [µM]
Caco-2 [9] | – | > 10
Caco-2 [13] | 0 | –
Calu-3 [10] | – | > 10
Calu-3 [14] | 0 | –
HepG2 [11] | – | > 10
HepG2 [15] | 0 | –
Vero E6 [12] | – | > 10
Vero E6 [16] | 0 | –

CC(C)(C)Cn1c(N)nc2ccc(-c3[nH]c(C(C)(C)C)nc3-c3ccc(F)cc3)nc21
Details | SARS-CoV-2 infection rate, [6] [%] | cell count, [1] [%] | cell viability, Caco-2 [2] [%] | cell viability, Calu-3 [3] [%] | cell viability, HepG2 [4] [%] | cell viability, U2OS [17] [%] | cell viability, Vero E6 [5] [%] | morphology score, [8]
1 nM | – | – | 102 | 107 | 97 | 99 | 93.2 | –
10 nM | – | – | 98.1 | 94.6 | 92.8 | 98.4 | 94.5 | –
100 nM | – | – | 89.6 | 85.5 | 100 | 95.2 | 83.6 | –
0.3 µM | 118 | 87 | – | – | – | – | – | -0.39
1000 nM | – | – | 86.6 | 75.3 | 94.9 | 91.7 | 72.4 | –
3 µM | 8 | 129 | – | – | – | – | – | 0.95
10 µM | 4 | 124 | – | – | – | – | – | 0.96
10000 nM | – | – | 68 | 54.1 | 85.3 | 77.4 | 58.7 | –
30 µM | 8 | 100 | – | – | – | – | – | 0.66

drug-induced phospholipidosis [%], A549-ACE2 [7]
Details | 0.3 µM | 0.833333 µM | 3.33333 µM | 6.66667 µM | 10 µM | 30 µM
24 h | -0.05 | -0.99 | 3.52 | 13.5 | 24.9 | 60.6
48 h | 1.57 | 1.82 | 5.06 | 15.9 | 25.2 | 57.1
72 h | 2.63 | 3.92 | 4.98 | 13.2 | 27 | –

Details | drug sensitivity score | relative viability EC50 [µM]
Caco-2 [13] | 2.9 | –
Calu-3 [14] | 6.1 | –
HepG2 [11] | – | > 10
HepG2 [15] | 0.6 | –
U2OS [18] | – | > 10
U2OS [19] | 1.2 | –
Vero E6 [16] | 6.7 | –

Cc1[nH]c(/C=C2\C(=O)Nc3ccc(S(=O)(=O)Cc4c(Cl)cccc4Cl)cc32)c(C)c1C(=O)N1CCC[C@@H]1CN1CCCC1
Details | SARS-CoV-2 infection rate [%] | cell count [%] | cell viability [%] | morphology score | phospholipidosis EC50 [µM]
A549-ACE2 [20], 24 h | – | – | – | – | 3.45
A549-ACE2 [20], 48 h | – | – | – | – | 3.61
A549-ACE2 [20], 72 h | – | – | – | – | 3.54
Caco-2 [2], 1 nM | – | – | 90.9 | – | –
Caco-2 [2], 10 nM | – | – | 99.2 | – | –
Caco-2 [2], 100 nM | – | – | 104 | – | –
Caco-2 [2], 1000 nM | – | – | 103 | – | –
Caco-2 [2], 10000 nM | – | – | 3.7 | – | –
Calu-3 [3], 1 nM | – | – | 100 | – | –
Calu-3 [3], 10 nM | – | – | 98.2 | – | –
Calu-3 [3], 100 nM | – | – | 109 | – | –
Calu-3 [3], 1000 nM | – | – | 100 | – | –
Calu-3 [3], 10000 nM | – | – | 4.3 | – | –
HepG2 [4], 1 nM | – | – | 102 | – | –
HepG2 [4], 10 nM | – | – | 96.9 | – | –
HepG2 [4], 100 nM | – | – | 102 | – | –
HepG2 [4], 1000 nM | – | – | 104 | – | –
HepG2 [4], 10000 nM | – | – | 3.3 | – | –
U2OS [17], 1 nM | – | – | 97.2 | – | –
U2OS [17], 10 nM | – | – | 100 | – | –
U2OS [17], 100 nM | – | – | 95.7 | – | –
U2OS [17], 1000 nM | – | – | 103 | – | –
U2OS [17], 10000 nM | – | – | 0.9 | – | –
Vero E6 [5], 1 nM | – | – | 99.9 | – | –
Vero E6 [5], 10 nM | – | – | 97.5 | – | –
Vero E6 [5], 100 nM | – | – | 101 | – | –
Vero E6 [5], 1000 nM | – | – | 91.1 | – | –
Vero E6 [5], 10000 nM | – | – | 57 | – | –
[1], 0.1 µM | – | 98 | – | – | –
[1], 0.3 µM | – | 109 | – | – | –
[1], 1 µM | – | 108 | – | – | –
[1], 3 µM | – | 115 | – | – | –
[6], 0.1 µM | 109 | – | – | – | –
[6], 0.3 µM | 83 | – | – | – | –
[6], 1 µM | 74 | – | – | – | –
[6], 3 µM | 26 | – | – | – | –
[8], 0.1 µM | – | – | – | -0.01 | –
[8], 0.3 µM | – | – | – | 0.51 | –
[8], 1 µM | – | – | – | 0.6 | –
[8], 3 µM | – | – | – | 0.73 | –

drug-induced phospholipidosis [%], A549-ACE2 [7]
Details | 0.3 µM | 0.833333 µM | 3.33333 µM | 6.66667 µM | 10 µM
24 h | 20.1 | 33 | 77.3 | 173 | 149
48 h | 14.3 | 18.9 | 53.1 | 177 | 149
72 h | 13.7 | 15.6 | 43.6 | 149 | 64.6

Details | drug sensitivity score | relative viability EC50 [µM]
Caco-2 [9] | – | 3.36
Caco-2 [13] | 5.1 | –
Calu-3 [10] | – | 3.17
Calu-3 [14] | 5.4 | –
HepG2 [11] | – | 3.39
HepG2 [15] | 5.1 | –
U2OS [18] | – | 3.35
U2OS [19] | 5.3 | –
Vero E6 [16] | 3.6 | –

O=C(c1ccc(/C=C/c2n[nH]c3ccccc23)cc1)N1CCNCC1 [KW-2449]
Details | SARS-CoV-2 infection rate, [6] [%] | cell count, [1] [%] | cell viability, Caco-2 [2] [%] | cell viability, HepG2 [4] [%] | cell viability, U2OS [17] [%] | cell viability, Vero E6 [5] [%] | morphology score, [8]
1 nM | – | – | 98.7 | 102 | 103 | 103 | –
10 nM | – | – | 98.6 | 108 | 102 | 104 | –
100 nM | – | – | 97.2 | 98.6 | 101 | 99.3 | –
0.3 µM | 98 | 105 | – | – | – | – | 0.33
1000 nM | – | – | 99 | 94.6 | 100 | 101 | –
3 µM | 79 | 59 | – | – | – | – | 0.51
10 µM | 26 | 39 | – | – | – | – | 0.62
10000 nM | – | – | 108 | 69.6 | 63.1 | 95.3 | –
30 µM | 40 | 1 | – | – | – | – | 0.12

drug-induced phospholipidosis [%], A549-ACE2 [7]
Details | 0.3 µM | 0.833333 µM | 3.33333 µM | 6.66667 µM | 10 µM
24 h | -0.51 | -0.69 | 3.6 | 13.3 | 8.57
48 h | -1.26 | -3.23 | 0.95 | 9.27 | 0.37
72 h | -0.724 | -3.37 | – | – | –

Details | drug sensitivity score | relative viability EC50 [µM]
Caco-2 [9] | – | > 10
Caco-2 [13] | 0 | –
HepG2 [15] | 2.2 | –
U2OS [19] | 1.7 | –
Vero E6 [12] | – | > 10
Vero E6 [16] | 0 | –
